What all share (test): KinomeScan profiling
What all share (type): binding

Assay [1] deals with T1, FLT3(K663Q) (Homo sapiens, UniProt P36888, K663Q).
T1 sequence (P36888 27-993 K663Q): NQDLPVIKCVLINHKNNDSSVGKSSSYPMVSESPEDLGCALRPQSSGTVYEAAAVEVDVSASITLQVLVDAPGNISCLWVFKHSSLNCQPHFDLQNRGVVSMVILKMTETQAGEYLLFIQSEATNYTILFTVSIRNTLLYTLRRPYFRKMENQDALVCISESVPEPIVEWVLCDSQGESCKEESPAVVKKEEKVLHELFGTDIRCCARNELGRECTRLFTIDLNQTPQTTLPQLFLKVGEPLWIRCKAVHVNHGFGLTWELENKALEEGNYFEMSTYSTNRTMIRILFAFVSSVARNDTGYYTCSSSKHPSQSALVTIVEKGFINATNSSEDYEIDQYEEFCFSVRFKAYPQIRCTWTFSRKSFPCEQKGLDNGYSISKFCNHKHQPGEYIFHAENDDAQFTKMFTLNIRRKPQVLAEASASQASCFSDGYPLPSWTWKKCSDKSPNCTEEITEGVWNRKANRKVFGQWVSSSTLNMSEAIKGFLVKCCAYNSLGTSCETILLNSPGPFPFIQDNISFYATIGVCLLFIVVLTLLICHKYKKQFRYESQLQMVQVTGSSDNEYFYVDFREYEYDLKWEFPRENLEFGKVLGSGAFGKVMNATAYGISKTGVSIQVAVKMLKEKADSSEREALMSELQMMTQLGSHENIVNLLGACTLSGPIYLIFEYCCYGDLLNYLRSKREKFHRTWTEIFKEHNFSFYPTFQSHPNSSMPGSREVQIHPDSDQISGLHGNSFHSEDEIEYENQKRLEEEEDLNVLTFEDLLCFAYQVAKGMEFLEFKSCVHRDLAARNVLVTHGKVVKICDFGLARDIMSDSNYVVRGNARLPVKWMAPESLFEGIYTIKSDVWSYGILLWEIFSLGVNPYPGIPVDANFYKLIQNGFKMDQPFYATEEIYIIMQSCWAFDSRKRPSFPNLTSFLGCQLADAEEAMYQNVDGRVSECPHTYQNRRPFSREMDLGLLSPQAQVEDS
The settings on record: read-out: % control. An outline of the steps: (§1)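 Percent-of-control values derive from RLU, calculated as (test − positive)/(negative − positive) × 100, where DMSO defines 100% and a positive control compound defines 0%. Each compound was tested at 1 μM in the 468-kinase panel; sub-35% readings indicate activity.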

For assay [2], the target named is LRRK2 (Homo sapiens, UniProt Q5S007). The settings on record: LRRK2, 1 μM; read-out: % control. An outline of the steps: as §1
In assay [3] the target is T2, PIM3 (Homo sapiens, UniProt Q86V86).
T2 construct: purchased KinomeScan® (panel service)
The conditions noted are these: PIM3, 1 μM; read-out: % control. An outline of the steps:
as §1

Assay [4] deals with T3, BRSK2 (Homo sapiens, UniProt Q8IWQ3).
T3 sequence (Q8IWQ3 1-736): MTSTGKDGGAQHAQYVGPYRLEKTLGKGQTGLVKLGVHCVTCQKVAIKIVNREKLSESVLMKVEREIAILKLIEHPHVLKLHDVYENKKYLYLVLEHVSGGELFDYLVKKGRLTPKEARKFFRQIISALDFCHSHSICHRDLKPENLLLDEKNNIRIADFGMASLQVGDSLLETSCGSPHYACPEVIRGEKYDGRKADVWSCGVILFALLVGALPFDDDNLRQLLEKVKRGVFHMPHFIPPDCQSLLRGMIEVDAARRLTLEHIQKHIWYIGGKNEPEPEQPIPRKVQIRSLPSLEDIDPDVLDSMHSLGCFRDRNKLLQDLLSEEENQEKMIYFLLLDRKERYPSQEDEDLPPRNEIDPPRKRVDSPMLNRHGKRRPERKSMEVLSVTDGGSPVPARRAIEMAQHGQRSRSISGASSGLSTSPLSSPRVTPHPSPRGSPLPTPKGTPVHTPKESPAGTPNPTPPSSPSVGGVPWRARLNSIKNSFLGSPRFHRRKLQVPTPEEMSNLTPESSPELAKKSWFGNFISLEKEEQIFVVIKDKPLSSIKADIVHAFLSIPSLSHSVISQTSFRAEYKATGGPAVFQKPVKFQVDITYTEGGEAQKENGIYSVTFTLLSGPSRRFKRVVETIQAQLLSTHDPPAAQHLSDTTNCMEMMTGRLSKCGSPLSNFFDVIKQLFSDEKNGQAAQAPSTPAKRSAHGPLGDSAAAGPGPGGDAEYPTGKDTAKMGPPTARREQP
The settings on record: BRSK2, 1 μM; read-out: % control. Put shortly:
as §1

The target in assay [5] is PAK6 (Homo sapiens, UniProt Q9NQU5). The conditions noted are these: PAK6, 1 μM; read-out: % control. An outline of the steps:
as §1

Assay [6] concerns the target PAK7 (Homo sapiens, UniProt Q9P286). The conditions noted are these: PAK7, 1 μM; read-out: % control. An outline of the steps:
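1 μM cpd in DMSO; 468-kinase panel; readout RLU. % ctrl = (cpd − pos ctrl)/(neg ctrl − pos ctrl) ×100. Pos ctrl = 0%, DMSO = 100%. Hit cut-off <35%.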

The target in assay [7] is T4, BRAF(V600E) (Homo sapiens, UniProt P15056, V600E).
T4 construct: purchased KinomeScan®
T4 sequence (P15056 whole entry V600E): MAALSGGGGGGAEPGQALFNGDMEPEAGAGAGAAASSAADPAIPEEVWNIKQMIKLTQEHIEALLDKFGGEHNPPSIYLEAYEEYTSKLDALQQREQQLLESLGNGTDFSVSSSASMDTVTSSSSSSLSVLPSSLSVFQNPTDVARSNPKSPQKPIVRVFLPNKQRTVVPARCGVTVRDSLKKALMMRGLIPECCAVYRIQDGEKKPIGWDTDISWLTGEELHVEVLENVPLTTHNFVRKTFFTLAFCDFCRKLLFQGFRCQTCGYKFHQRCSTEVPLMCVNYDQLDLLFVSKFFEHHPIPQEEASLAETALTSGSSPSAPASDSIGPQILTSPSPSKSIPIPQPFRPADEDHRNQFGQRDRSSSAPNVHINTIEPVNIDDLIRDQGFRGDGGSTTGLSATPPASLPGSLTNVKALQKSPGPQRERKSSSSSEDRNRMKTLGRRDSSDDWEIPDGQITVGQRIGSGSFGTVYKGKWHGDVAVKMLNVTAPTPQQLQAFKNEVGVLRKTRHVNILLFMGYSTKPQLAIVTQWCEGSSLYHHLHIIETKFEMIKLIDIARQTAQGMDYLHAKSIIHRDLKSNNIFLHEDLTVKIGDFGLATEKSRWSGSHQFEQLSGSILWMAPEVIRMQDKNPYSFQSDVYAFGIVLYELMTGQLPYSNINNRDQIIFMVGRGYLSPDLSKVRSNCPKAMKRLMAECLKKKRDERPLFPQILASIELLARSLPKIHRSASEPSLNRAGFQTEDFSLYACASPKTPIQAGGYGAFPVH
The conditions noted are these: read-out: % control. An outline of the steps: as §1

Assay [8] concerns the target CDK3 (Homo sapiens, UniProt Q00526). The settings on record: CDK3, 1 μM; read-out: % control. An outline of the steps: as §1
The target of assay [9] is DAPK2 (Homo sapiens, UniProt Q9UIK4). The settings on record: DAPK2, 1 μM; read-out: % control. Put shortly: as §1
Chain of DAPK2 (Q9UIK4 whole entry): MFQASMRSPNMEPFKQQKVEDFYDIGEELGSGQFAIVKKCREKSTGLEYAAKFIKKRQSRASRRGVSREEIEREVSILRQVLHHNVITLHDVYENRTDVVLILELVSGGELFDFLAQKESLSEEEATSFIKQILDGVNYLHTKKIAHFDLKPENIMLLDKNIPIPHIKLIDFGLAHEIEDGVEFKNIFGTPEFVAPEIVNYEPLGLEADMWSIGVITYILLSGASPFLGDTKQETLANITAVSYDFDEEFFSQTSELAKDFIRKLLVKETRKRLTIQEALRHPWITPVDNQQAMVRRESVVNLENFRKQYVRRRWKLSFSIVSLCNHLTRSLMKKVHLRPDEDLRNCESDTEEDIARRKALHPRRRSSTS
Assay [10] deals with EGFR(L858R) (Homo sapiens, UniProt P00533, L858R). The conditions noted are these: read-out: % control. An outline of the steps: as §1
Chain of EGFR(L858R) (P00533 25-1210 L858R): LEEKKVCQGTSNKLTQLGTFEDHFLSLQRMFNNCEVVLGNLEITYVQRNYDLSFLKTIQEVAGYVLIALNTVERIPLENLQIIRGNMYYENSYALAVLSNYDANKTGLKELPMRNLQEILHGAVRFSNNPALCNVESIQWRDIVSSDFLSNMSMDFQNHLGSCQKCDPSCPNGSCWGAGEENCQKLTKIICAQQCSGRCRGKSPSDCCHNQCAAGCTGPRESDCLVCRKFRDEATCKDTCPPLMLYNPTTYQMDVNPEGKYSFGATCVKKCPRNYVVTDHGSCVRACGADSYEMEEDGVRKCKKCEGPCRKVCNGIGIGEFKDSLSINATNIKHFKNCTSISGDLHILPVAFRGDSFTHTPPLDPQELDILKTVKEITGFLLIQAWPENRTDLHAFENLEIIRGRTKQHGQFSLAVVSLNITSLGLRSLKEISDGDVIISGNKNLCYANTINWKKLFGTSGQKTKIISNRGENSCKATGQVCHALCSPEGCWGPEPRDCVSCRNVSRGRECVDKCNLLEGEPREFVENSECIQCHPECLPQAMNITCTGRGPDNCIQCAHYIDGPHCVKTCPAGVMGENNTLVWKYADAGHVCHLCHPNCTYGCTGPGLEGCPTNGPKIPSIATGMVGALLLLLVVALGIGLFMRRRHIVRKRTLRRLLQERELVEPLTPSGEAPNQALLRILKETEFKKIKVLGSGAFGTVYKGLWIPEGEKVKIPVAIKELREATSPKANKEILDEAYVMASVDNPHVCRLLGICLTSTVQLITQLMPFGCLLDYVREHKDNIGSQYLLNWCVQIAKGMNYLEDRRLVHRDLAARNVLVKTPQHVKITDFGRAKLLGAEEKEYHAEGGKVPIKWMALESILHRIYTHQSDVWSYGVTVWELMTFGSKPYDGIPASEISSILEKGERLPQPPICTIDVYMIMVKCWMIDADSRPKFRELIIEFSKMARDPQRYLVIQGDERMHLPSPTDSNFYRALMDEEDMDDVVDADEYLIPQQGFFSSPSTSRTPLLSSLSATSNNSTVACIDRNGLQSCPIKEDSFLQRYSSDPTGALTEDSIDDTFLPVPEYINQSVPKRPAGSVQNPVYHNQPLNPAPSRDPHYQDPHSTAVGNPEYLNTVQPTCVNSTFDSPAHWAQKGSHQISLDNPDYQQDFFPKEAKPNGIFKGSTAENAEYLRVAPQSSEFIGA

Structures are written as SMILES.

Chain of PAK7 (Q9P286 whole entry): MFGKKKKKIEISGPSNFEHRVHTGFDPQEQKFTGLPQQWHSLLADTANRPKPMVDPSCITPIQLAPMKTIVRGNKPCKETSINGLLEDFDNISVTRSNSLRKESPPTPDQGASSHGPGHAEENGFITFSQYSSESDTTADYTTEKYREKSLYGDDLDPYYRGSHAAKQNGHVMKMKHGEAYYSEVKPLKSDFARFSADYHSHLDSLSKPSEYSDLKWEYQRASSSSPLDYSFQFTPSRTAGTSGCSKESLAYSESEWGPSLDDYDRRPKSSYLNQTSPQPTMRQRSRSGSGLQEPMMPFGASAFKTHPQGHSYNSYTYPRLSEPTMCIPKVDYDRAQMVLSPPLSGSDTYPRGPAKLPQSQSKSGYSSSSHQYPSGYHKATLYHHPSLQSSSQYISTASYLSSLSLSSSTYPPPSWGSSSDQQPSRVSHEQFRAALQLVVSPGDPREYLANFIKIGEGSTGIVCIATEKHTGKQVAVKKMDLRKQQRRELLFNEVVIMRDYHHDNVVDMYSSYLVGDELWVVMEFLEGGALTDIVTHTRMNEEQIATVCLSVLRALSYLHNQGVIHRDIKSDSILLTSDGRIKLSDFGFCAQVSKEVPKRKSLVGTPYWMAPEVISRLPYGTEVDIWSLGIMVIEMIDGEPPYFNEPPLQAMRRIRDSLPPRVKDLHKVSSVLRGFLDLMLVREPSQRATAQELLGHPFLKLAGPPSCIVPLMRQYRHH
Chain of PAK6 (Q9NQU5 whole entry): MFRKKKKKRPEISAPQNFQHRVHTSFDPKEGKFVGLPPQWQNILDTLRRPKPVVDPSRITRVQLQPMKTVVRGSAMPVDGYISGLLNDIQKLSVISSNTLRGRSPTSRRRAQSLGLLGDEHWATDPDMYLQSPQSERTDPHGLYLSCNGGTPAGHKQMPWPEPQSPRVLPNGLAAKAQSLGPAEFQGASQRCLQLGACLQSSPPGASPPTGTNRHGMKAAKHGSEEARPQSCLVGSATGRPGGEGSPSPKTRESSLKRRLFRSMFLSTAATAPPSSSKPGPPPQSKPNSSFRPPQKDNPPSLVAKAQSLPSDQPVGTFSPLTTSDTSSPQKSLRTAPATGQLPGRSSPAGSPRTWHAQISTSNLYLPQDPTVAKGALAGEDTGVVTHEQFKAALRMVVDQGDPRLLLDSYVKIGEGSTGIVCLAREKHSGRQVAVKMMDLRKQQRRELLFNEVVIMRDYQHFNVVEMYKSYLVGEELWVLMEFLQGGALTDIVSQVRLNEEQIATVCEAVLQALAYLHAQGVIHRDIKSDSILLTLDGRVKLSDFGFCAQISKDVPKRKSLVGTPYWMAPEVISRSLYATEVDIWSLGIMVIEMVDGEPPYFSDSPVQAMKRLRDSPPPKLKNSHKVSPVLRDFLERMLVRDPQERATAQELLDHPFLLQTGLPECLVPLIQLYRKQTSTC
Chain of CDK3 (Q00526 whole entry): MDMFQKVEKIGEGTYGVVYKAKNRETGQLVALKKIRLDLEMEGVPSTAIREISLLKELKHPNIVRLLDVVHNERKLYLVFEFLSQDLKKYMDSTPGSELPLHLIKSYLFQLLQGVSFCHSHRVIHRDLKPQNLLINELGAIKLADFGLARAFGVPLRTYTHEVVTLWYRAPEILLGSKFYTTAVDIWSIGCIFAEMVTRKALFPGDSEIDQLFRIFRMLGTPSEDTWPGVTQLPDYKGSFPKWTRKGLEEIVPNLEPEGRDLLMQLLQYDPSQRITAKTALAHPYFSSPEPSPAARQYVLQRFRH

`CNc1c(-c2ccc(C(=O)N3CCC(N4CCOCC4)CC3)cc2)cnc2[nH]cc(Cl)c12` [Compound 96, (4-(3-chloro-4-(methylamino)-1H-pyrrolo[2,3-b]pyridin-5-yl)phenyl)(4-morpholinopiperidin-1-yl)methanone]: the remaining binding at 1 µM was 15% in [1]; 2.6% in [2]; 100% in assay [3]; 95% in assay [4]; 100% in assay [5]; 41% in [6]. For the same compound, the remaining binding at 1 µM in assay [7] stood at 87%; in assay [8] it was 89%; in assay [9] it was 82%; in assay [10], 100%.

Turning to `O=C(c1ccc(-c2cnc3[nH]cc(Cl)c3c2NC2CCCC2)cc1)N1CCC(N2CCOCC2)CC1` [Compound 101, (4-(3-chloro-4-(cyclopentylamino)-1H-pyrrolo[2,3-b]pyridin-5-yl)phenyl)(4-morpholinopiperidin-1-yl)methanone], the remaining binding at 1 µM was determined as 28% in [1]; 33% in assay [2]; 96% in assay [3]; 94% in assay [4]; 99% in [5]; 95% in assay [6]. Besides, the remaining binding at 1 µM in [7] stood at 99%; in assay [8], 97%; in assay [9], 100%; in [10], 96%.

For the compound `CNc1c(-c2cnn([C@H]3CCN(C(C)=O)C[C@@H]3F)c2)cnc2[nH]cc(Cl)c12` [Compound 77, 1-((3S,4S)-4-(4-(3-chloro-4-(methylamino)-1H-pyrrolo[2,3-b]pyridin-5-yl)-1H-pyrazol-1-yl)-3-fluoropiperidin-1-yl)ethan-1-one], the remaining binding at 1 µM in assay [1] was 15%; in assay [2], 15%; in [3], 99%; in [4] it was 100%; in [5], 99%; in assay [6], 100%. Also, the remaining binding at 1 µM in assay [7] amounted to 98%; in assay [8], 95%; in [9], 72%; in [10], 100%.
